Among the data in patent publication EP0728482A2, “Use of hcp specific compounds to enhance erythropoiesis” (SMITHKLINE BEECHAM CORPORATION, priority 1995, dated 1996) are Ki and IC50 values, retold here.

The target of the experiment is T1, human fyn SH2 domain (Homo sapiens, UniProt P06241).
T1 construct: made in house; host or cells: E. coli (pGEX-2T)
In words: ELISA-based SH2 domain / pY peptide binding assay, fyn SH2 domain. The method, then:
The inhibitory activity of compounds at the different human SH2 domains was determined in vitro using SH2 domains expressed as fusion proteins in E. coli. The SH2 domains used herein were the human forms of the src SH2 domain, Grb2 SH2 domain, lck SH2 domain, fyn SH2 domain, SH-PTP2 SH2 domain, p85 SH2 domain and hcp SH2 domain.
Fusion proteins having the structure GST-X-SH2 were prepared as described in the GST gene fusion kit system available from Pharmacia (New Jersey). GST is the tagging sequence glutathione s-transferase epitope (SEQ ID NO: 8) for fyn, Grb2 and SH-PTP2 and is the tagging sequence glutathione s-transferase epitope (SEQ ID NO: 9) for p85. SH2 refers to the SH2 domains of fyn, Grb2, p85 and SH-PTP2 which were expressed and purified using glutathione Sepharose 4B (Pharmacia) according to "Current Protocols in Molecular Biology", ed. FM Ausubel et al., pub. John Wiley and Sons, Inc., (1995), p 16.7.1. X is an appropriate linker, preferably of 6 to 21 base pairs, used to keep the SH2 construct in frame and complement cloning. As such, the sequence of X is not critical. One skilled in the art can readily construct the appropriate linker. The DNA sequence encoding each GST-X-SH2 fusion protein was designed such that the indicated restriction sites (BamH1 and EcoRI) flank the SH2 region. […]

Molecules are shown by their SMILES.

T1 sequence (P06241 143-252): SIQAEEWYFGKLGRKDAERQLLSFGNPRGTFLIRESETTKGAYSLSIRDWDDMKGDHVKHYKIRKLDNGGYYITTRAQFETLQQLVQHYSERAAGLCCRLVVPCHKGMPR

In the case of `CCCCCCNC(=O)[C@H]1CC[C@H](CNC(=O)c2ccc(C(=O)c3ccc(C(=O)O)cc3)cc2)CC1` [Compound 6, 4-carboxy-benzophenone-4-carboxamido-trans-4-methyl-cyclohexyl-N-hexyl carboxamide], the Ki (Ki calculated from IC50 with the expanded equation) was greater than 1000 µM. The compound also came in with an IC50 (inhibition of binding of 0.1 uM biotinylated pY peptide to SH2 domain fusion protein) greater than 300 µM.
